Assay results: US9000159B2 (Glenmark Pharmaceuticals, S.A., priority 2009, dated 2015)

Target: T1, Human TRPA1 (Homo sapiens, UniProt O75762)
T1 construct: expressed in transfected cells; host or cells: CHO cells
Test: 45Calcium uptake assay: inhibition of AITC induced cellular uptake of radioactive calcium
Assay type: cell-based
Settings: AITC (30 μM) induced 45Ca uptake, Human TRPA1 expressing CHO cells; for inhibition at 1 µM: 1.0 μM test compound, read-out: Percentage inhibition at 1.0 μM; for inhibition at 10 µM: 10.0 μM test compound, read-out: Percentage inhibition at 10.0 μM; for IC50: read-out: Human IC50 value (range)
Description: The illustrative examples of the present invention are screened for TRPA1 activity according to a modified procedure described in (a) Tóth, A. et al., Life Sciences, 2003, 73, 487-498. (b) McNamara C, R. et al., Proc. Natl. Acad. Sci. U.S.A., 2007, 104, 13525-13530. The screening of the compounds can be carried out by other methods and procedures known to persons skilled in the art.
Screening for TRPA1 Antagonist Using the ^45Calcium Uptake Assay
The inhibition of TRPA1 receptor activation was measured as inhibition of allyl isothiocyanate (AITC) induced cellular uptake of radioactive calcium. Test compounds were dissolved in DMSO to prepare 10 mM stock solution and then diluted using plain medium with 0.1% BSA and 1.8 mM CaCl2 to get desired concentration. Final concentration of DMSO in the reaction was 0.5% (v/v). Human TRPA1 expressing CHO cells were grown in F-12 DMEM medium with 10% FBS, 1% penicillin-streptomycin solution, 400 μg/ml of G-418. Cells were seeded 24 h prior to the assay in 96 well plates so as to get ˜50,000 cells per well on the day of experiment. Cells were treated with test compounds for 10 min followed by addition of AITC at a final concentration of 30 μM and 5 μCi/ml ^45Ca^+2 for 3 min. Cells were washed and lysed using buffer containing 1% Triton X-100, 0.1% deoxycholate and 0.1% SDS. Radioactivity in the lysate was measured in Packard Top count after addition of liquid scintillant. Concentration response curves were plotted as a % of maximal response obtained in the absence of test antagonist. IC50 value was calculated from concentration response curve by nonlinear regression analysis using GraphPad PRISM software.

T1 sequence (O75762 whole entry): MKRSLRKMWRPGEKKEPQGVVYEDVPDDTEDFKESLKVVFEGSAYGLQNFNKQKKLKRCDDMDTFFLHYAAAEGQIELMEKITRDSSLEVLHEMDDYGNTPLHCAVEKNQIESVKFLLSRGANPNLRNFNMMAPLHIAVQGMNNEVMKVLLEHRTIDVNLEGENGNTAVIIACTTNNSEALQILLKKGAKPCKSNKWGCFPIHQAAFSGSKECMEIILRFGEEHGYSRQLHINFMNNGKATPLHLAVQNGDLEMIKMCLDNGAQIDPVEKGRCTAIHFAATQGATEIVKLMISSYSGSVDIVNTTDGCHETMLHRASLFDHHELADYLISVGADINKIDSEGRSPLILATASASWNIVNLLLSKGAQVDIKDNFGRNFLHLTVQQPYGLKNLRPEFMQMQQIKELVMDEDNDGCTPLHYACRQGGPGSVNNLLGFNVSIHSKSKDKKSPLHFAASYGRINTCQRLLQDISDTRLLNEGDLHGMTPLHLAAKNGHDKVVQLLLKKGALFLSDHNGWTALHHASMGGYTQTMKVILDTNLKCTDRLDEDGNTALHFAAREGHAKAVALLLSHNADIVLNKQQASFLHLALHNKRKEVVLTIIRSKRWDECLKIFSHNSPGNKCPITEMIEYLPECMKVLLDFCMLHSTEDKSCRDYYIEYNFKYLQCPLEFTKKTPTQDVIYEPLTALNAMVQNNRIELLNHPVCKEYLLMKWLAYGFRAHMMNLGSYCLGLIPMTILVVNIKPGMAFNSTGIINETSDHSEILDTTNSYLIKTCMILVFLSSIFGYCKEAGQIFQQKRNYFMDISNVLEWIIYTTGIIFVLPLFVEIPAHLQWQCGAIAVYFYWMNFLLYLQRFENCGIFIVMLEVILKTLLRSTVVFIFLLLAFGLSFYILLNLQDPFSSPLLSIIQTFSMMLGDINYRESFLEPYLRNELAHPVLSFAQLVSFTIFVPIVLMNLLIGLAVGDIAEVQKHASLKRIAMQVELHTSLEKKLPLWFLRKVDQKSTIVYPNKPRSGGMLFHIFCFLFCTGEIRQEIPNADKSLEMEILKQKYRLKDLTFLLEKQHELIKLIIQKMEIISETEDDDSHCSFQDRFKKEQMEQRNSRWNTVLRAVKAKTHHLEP

Structure (SMILES) | inhibition at 1 µM [%] | inhibition at 10 µM [%] | IC50 [nM]
Cn1c(=O)c2c(CC(=O)Nc3nc(-c4cc(F)c(OCC(F)(F)F)c(F)c4)cs3)cn(C)c2n(C)c1=O [Example 44, N-{4-[3,5-Difluoro-4-(2,2,2-trifluoroethoxy)phenyl]-1,3-thiazol-2-yl}-2-(1,3,7-trimethyl-2,4-dioxo-2,3,4,7-tetrahydro-1H-pyrrolo[2,3-d]pyrimidin-5-yl)acetamide] | 27.1 | 77 | –
CC(C)Cc1ccc(-c2csc(NC(=O)Cc3c4c(=O)n(C)c(=O)n(C)c4nn3C)n2)cc1 [Example 45, N-[4-(4-Isobutylphenyl)-1,3-thiazol-2-yl]-2-(2,5,7-trimethyl-4,6-dioxo-4,5,6,7-tetrahydro-2H-pyrazolo[3,4-d]pyrimidin-3-yl)acetamide] | 93.5 | 98.9 | 50 to 100
Cn1nc2c(c1CC(=O)Nc1nc(-c3ccc(Cl)cc3)cs1)c(=O)n(C)c(=O)n2C [Example 46, N-[4-(4-Chlorophenyl)-1,3-thiazol-2-yl]-2-(2,5,7-trimethyl-4,6-dioxo-4,5,6,7-tetrahydro-2H-pyrazolo[3,4-d]pyrimidin-3-yl)acetamide] | 89.3 | 96.6 | > 100
Cn1nc2c(c1CC(=O)Nc1nc(-c3ccc(C(F)(F)F)cc3)cs1)c(=O)n(C)c(=O)n2C [Example 47, N-{4-[4-(Trifluoromethyl)phenyl]-1,3-thiazol-2-yl}-2-(2,5,7-trimethyl-4,6-dioxo-4,5,6,7-tetrahydro-2H-pyrazolo[3,4-d]pyrimidin-3-yl)acetamide] | 99 | 99.5 | < 50
Cn1nc2c(c1CC(=O)Nc1nc(-c3cccc(C(F)(F)F)c3)cs1)c(=O)n(C)c(=O)n2C [Example 48, N-{4-[3-(Trifluoromethyl)phenyl]-1,3-thiazol-2-yl}-2-(2,5,7-trimethyl-4,6-dioxo-4,5,6,7-tetrahydro-2H-pyrazolo[3,4-d]pyrimidin-3-yl)acetamide] | 92.8 | 97.5 | 50 to 100
Cn1nc2c(c1CC(=O)Nc1nc(-c3cccc(OC(F)(F)F)c3)cs1)c(=O)n(C)c(=O)n2C [Example 49, N-{4-[3-(Trifluoromethoxy)phenyl]-1,3-thiazol-2-yl}-2-(2,5,7-trimethyl-4,6-dioxo-4,5,6,7-tetrahydro-2H-pyrazolo[3,4-d]pyrimidin-3-yl)acetamide] | 52.3 | 88.5 | –
Cn1nc2c(c1CC(=O)Nc1nc(-c3ccc(F)cc3F)cs1)c(=O)n(C)c(=O)n2C [Example 50, N-[4-(2,4-Difluorophenyl)-1,3-thiazol-2-yl]-2-(2,5,7-trimethyl-4,6-dioxo-4,5,6,7-tetrahydro-2H-pyrazolo[3,4-d]pyrimidin-3-yl)acetamide] | 0 | 19.8 | –
Cn1nc2c(c1CC(=O)Nc1nc(-c3ccc(F)c(F)c3)cs1)c(=O)n(C)c(=O)n2C [Example 51, N-[4-(3,4-Difluorophenyl)-1,3-thiazol-2-yl]-2-(2,5,7-trimethyl-4,6-dioxo-4,5,6,7-tetrahydro-2H-pyrazolo[3,4-d]pyrimidin-3-yl)acetamide] | 57.5 | 79.7 | –
Cn1nc2c(c1CC(=O)Nc1nc(-c3cc(F)cc(F)c3)cs1)c(=O)n(C)c(=O)n2C [Example 52, N-[4-(3,5-Difluorophenyl)-1,3-thiazol-2-yl]-2-(2,5,7-trimethyl-4,6-dioxo-4,5,6,7-tetrahydro-2H-pyrazolo[3,4-d]pyrimidin-3-yl)acetamide] | 37.8 | 64.8 | –
Cn1nc2c(c1CC(=O)Nc1nc(-c3ccc(F)c(C(F)(F)F)c3)cs1)c(=O)n(C)c(=O)n2C [Example 53, N-{4-[4-Fluoro-3-(trifluoromethyl)phenyl]-1,3-thiazol-2-yl}-2-(2,5,7-trimethyl-4,6-dioxo-4,5,6,7-tetrahydro-2H-pyrazolo[3,4-d]pyrimidin-3-yl)acetamide] | 97.2 | 98.6 | < 50
Cn1nc2c(c1CC(=O)Nc1nc(-c3ccc(C(F)(F)F)c(F)c3)cs1)c(=O)n(C)c(=O)n2C [Example 54, N-[4-(3-Fluoro-4-trifluoromethylphenyl)-1,3-thiazol-2-yl]-2-(2,5,7-trimethyl-4,6-dioxo-4,5,6,7-tetrahydro-2H-pyrazolo[3,4-d]pyrimidin-3-yl)acetamide] | 97.7 | 99.6 | < 50
Cn1nc2c(c1CC(=O)Nc1nc(-c3cccc(C(F)(F)F)c3F)cs1)c(=O)n(C)c(=O)n2C [Example 55, N-{4-[2-Fluoro-3-(trifluoromethyl)phenyl]-1,3-thiazol-2-yl}-2-(2,5,7-trimethyl-4,6-dioxo-4,5,6,7-tetrahydro-2H-pyrazolo[3,4-d]pyrimidin-3-yl)acetamide] | 92.2 | 99.2 | 50 to 100
Cn1nc2c(c1CC(=O)Nc1nc(-c3ccc(C(F)(F)F)cc3F)cs1)c(=O)n(C)c(=O)n2C [Example 56, N-{4-[2-Fluoro-4-(trifluoromethyl)phenyl]-1,3-thiazol-2-yl}-2-(2,5,7-trimethyl-4,6-dioxo-4,5,6,7-tetrahydro-2H-pyrazolo[3,4-d]pyrimidin-3-yl)acetamide] | 96.2 | 98.2 | < 50
Cn1nc2c(c1CC(=O)Nc1nc(-c3cc(C(F)(F)F)ccc3F)cs1)c(=O)n(C)c(=O)n2C [Example 57, N-{4-[2-Fluoro-5-(trifluoromethyl)phenyl]-1,3-thiazol-2-yl}-2-(2,5,7-trimethyl-4,6-dioxo-4,5,6,7-tetrahydro-2H-pyrazolo[3,4-d]pyrimidin-3-yl)acetamide] | 43 | 49.8 | –
Cn1nc2c(c1CC(=O)Nc1nc(-c3cc(F)cc(C(F)(F)F)c3)cs1)c(=O)n(C)c(=O)n2C [Example 58, N-{4-[3-Fluoro-5-(trifluoromethyl)phenyl]-1,3-thiazol-2-yl}-2-(2,5,7-trimethyl-4,6-dioxo-4,5,6,7-tetrahydro-2H-pyrazolo[3,4-d]pyrimidin-3-yl)acetamide] | 94.6 | 99.2 | < 50
Cn1nc2c(c1CC(=O)Nc1nc(-c3ccc(OC(F)(F)F)c(F)c3)cs1)c(=O)n(C)c(=O)n2C [Example 59, N-{4-[3-Fluoro-4-(trifluoromethoxy)phenyl]-1,3-thiazol-2-yl}-2-(2,5,7-trimethyl-4,6-dioxo-4,5,6,7-tetrahydro-2H-pyrazolo[3,4-d]pyrimidin-3-yl)acetamide] | 97.6 | 99.3 | < 50
Cn1nc2c(c1CC(=O)Nc1nc(-c3ccc(F)c(OC(F)(F)F)c3)cs1)c(=O)n(C)c(=O)n2C [Example 60, N-{4-[4-Fluoro-3-(trifluoromethoxy)phenyl]-1,3-thiazol-2-yl}-2-(2,5,7-trimethyl-4,6-dioxo-4,5,6,7-tetrahydro-2H-pyrazolo[3,4-d]pyrimidin-3-yl)acetamide] | 93.4 | 97.2 | < 50
Cn1nc2c(c1CC(=O)Nc1nc(-c3ccc(OC(F)F)c(F)c3)cs1)c(=O)n(C)c(=O)n2C [Example 61, N-{4-[4-(Difluoromethoxy)-3-fluorophenyl]-1,3-thiazol-2-yl}-2-(2,5,7-trimethyl-4,6-dioxo-4,5,6,7-tetrahydro-2H-pyrazolo[3,4-d]pyrimidin-3-yl)acetamide] | 86 | 98.3 | 50 to 100
